# Test system: blood collected from volunteers
# Assay: Measurement of whole blood clotting time (Sonoclot, ACT ONSET value)
# Parameters: species or system human
# Experimental: To a cuvette (NON-ACTIVATED CLOTTING TEST KIT), 18 μL of physiological saline was placed, and 14.8 μL of calcicol was added thereto, followed by further adding 342 μL of blood supplemented with citric acid. Thereafter, the measurement using Sonoclot blood coagulation/platelet function analyzer (IMI Co., Ltd.) was carried out to define the obtained ACT ONSET value as whole blood clotting time.
smiles,measurement,setting,value
CC1CNc2c(cccc2S(=O)(=O)N[C@@H](CCCNC(=N)N)C(=O)N2CC[C@@H](C)C[C@@H]2C(=O)O)C1 (mixture of isomers) [argatroban],whole blood clotting time,2 μM argatroban solution,531 s
same,whole blood clotting time,10 μM argatroban solution,746 s
same,whole blood clotting time,20 μM argatroban solution,849 s

# Source: US20140113091A1, “MEDICAL SUPPLY” (Toray Industries, Inc., priority 2011, published 2014)
